Source: the supplement of paper PMC10307832

How the values were obtained:
Experiment in all cases: relative viability (nuclei count vs DMSO), 5 days (fraction); higher = more cells survive
17-AAG + Dasatinib = compound: C=CCNC1=C2C[C@@H](C)C[C@H](OC)[C@H](O)[C@@H](C)/C=C(\C)[C@H](OC(N)=O)[C@@H](OC)/C=C\C=C(/C)C(=O)NC(=CC1=O)C2=O [17-AAG] + Cc1nc(Nc2ncc(C(=O)Nc3c(C)cccc3Cl)s2)cc(N2CCN(CCO)CC2)n1 [Dasatinib] (partner 0.075 µM)
Outline: (§1)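 Relative viability was taken as the ratio of nuclei in treated wells to nuclei in vehicle wells. Lung cancer cell lines in 1536-well plates received compounds by pin tool one day after seeding, either one drug alone or a fixed anchor-drug dose plus five library-drug doses (not always all listed) in √10 steps. Nuclei were counted on 4× images after 5 days of treatment, and values are medians of duplicate plates.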

17-AAG + Palbociclib = compound: C=CCNC1=C2C[C@@H](C)C[C@H](OC)[C@H](O)[C@@H](C)/C=C(\C)[C@H](OC(N)=O)[C@@H](OC)/C=C\C=C(/C)C(=O)NC(=CC1=O)C2=O [17-AAG] + CC(=O)c1c(C)c2cnc(Nc3ccc(N4CCNCC4)cn3)nc2n(C2CCCC2)c1=O [Palbociclib] (partner 0.5 µM)
Outline: as §1

17-AAG + Vorinostat = compound: C=CCNC1=C2C[C@@H](C)C[C@H](OC)[C@H](O)[C@@H](C)/C=C(\C)[C@H](OC(N)=O)[C@@H](OC)/C=C\C=C(/C)C(=O)NC(=CC1=O)C2=O [17-AAG] + O=C(CCCCCCC(=O)Nc1ccccc1)NO [Vorinostat] (partner 1 µM)
Outline: as §1

17-AAG + Pemetrexed = compound: C=CCNC1=C2C[C@@H](C)C[C@H](OC)[C@H](O)[C@@H](C)/C=C(\C)[C@H](OC(N)=O)[C@@H](OC)/C=C\C=C(/C)C(=O)NC(=CC1=O)C2=O [17-AAG] + Nc1nc2[nH]cc(CCc3ccc(C(=O)N[C@@H](CCC(=O)O)C(=O)O)cc3)c2c(=O)[nH]1 [Pemetrexed] (partner 0.2 µM)
Outline: as §1

| Cell Line | relative viability (17-AAG + Dasatinib; first compound 0.00128 µM) | relative viability (17-AAG + Dasatinib; first compound 0.004048 µM) | relative viability (17-AAG + Dasatinib; first compound 0.0128 µM) | relative viability (17-AAG + Dasatinib; first compound 0.04048 µM) | relative viability (17-AAG + Dasatinib; first compound 0.128 µM) | relative viability (17-AAG + Palbociclib; first compound 0.00128 µM) | relative viability (17-AAG + Palbociclib; first compound 0.004048 µM) | relative viability (17-AAG + Palbociclib; first compound 0.0128 µM) | relative viability (17-AAG + Palbociclib; first compound 0.04048 µM) | relative viability (17-AAG + Palbociclib; first compound 0.128 µM) | relative viability (17-AAG + Vorinostat; first compound 0.00128 µM) | relative viability (17-AAG + Vorinostat; first compound 0.004048 µM) | relative viability (17-AAG + Vorinostat; first compound 0.0128 µM) | relative viability (17-AAG + Vorinostat; first compound 0.04048 µM) | relative viability (17-AAG + Vorinostat; first compound 0.128 µM) | relative viability (17-AAG + Pemetrexed; first compound 0.00128 µM) | relative viability (17-AAG + Pemetrexed; first compound 0.004048 µM) | relative viability (17-AAG + Pemetrexed; first compound 0.0128 µM) | relative viability (17-AAG + Pemetrexed; first compound 0.04048 µM) | relative viability (17-AAG + Pemetrexed; first compound 0.128 µM) |
| --- | --- | --- | --- | --- | --- | --- | --- | --- | --- | --- | --- | --- | --- | --- | --- | --- | --- | --- | --- | --- |
| NCI-H1734 | 0.482 | 0.445 | 0.356 | 0.176 | 0.105 | 0.366 | 0.402 | 0.369 | 0.303 | 0.175 | 0.77 | 0.851 | 0.574 | 0.271 | 0.132 | 0.4 | 0.474 | 0.475 | 0.261 | 0.161 |
| NCI-H1755 | 0.478 | 0.401 | 0.324 | 0.213 | 0.118 | 0.435 | 0.443 | 0.471 | 0.425 | 0.33 | 0.815 | 0.735 | 0.712 | 0.589 | 0.243 | 0.47 | 0.404 | 0.407 | 0.355 | 0.214 |
| NCI-H1793 | 0.437 | 0.243 | 0.14 | 0.122 | 0.129 | 0.345 | 0.295 | 0.208 | 0.14 | 0.17 | 0.687 | 0.656 | 0.283 | 0.189 | 0.148 | 0.837 | 0.513 | 0.213 | 0.16 | 0.124 |
| NCI-H1915 | 0.29 | 0.322 | 0.218 | 0.115 | 0.0794 | 0.533 | 0.503 | 0.471 | 0.253 | 0.0774 | 0.447 | 0.465 | 0.45 | 0.167 | 0.0637 | 0.521 | 0.462 | 0.422 | 0.191 | 0.057 |
| NCI-H1944 | 0.198 | 0.199 | 0.175 | 0.158 | 0.15 | 0.331 | 0.341 | 0.3 | 0.281 | 0.151 | 0.486 | 0.506 | 0.397 | 0.257 | 0.134 | 0.601 | 0.561 | 0.357 | 0.266 | 0.131 |
| NCI-H1975 | 0.315 | 0.247 | 0.121 | 0.104 | 0.0938 | 0.547 | 0.526 | 0.22 | 0.106 | 0.104 | 0.716 | 0.597 | 0.311 | 0.157 | 0.152 | 0.299 | 0.338 | 0.191 | 0.162 | 0.156 |
| NCI-H1993 | 0.548 | 0.607 | 0.344 | 0.387 | 0.344 | 0.704 | 0.622 | 0.813 | 0.373 | 0.296 | 0.83 | 0.73 | 0.472 | 0.201 | 0.273 | 0.65 | 0.649 | 0.437 | 0.298 | 0.323 |
| NCI-H2009 | 0.313 | 0.298 | 0.304 | 0.229 | 0.0827 | 0.22 | 0.254 | 0.258 | 0.203 | 0.0584 | 0.681 | 0.724 | 0.735 | 0.699 | 0.276 | 1.01 | 1.03 | 1.04 | 0.86 | 0.166 |
| NCI-H2023 | 0.572 | 0.281 | 0.0632 | 0.0704 | 0.059 | 0.374 | 0.195 | 0.102 | 0.0665 | 0.0605 | 0.572 | 0.37 | 0.112 | 0.0782 | 0.0643 | 0.268 | 0.137 | 0.0942 | 0.0647 | 0.0873 |
| NCI-H2085 | 0.184 | 0.271 | 0.243 | 0.292 | 0.298 | 0.51 | 0.472 | 0.479 | 0.443 | 0.337 | 0.787 | 0.809 | 0.861 | 0.665 | 0.599 | 0.944 | 0.923 | 0.911 | 0.877 | 0.828 |
| NCI-H2087 | 0.872 | 0.49 | 0.0992 | 0.13 | 0.0882 | 0.315 | 0.179 | 0.185 | 0.0984 | 0.108 | 0.996 | 0.656 | 0.252 | 0.116 | 0.116 | 0.606 | 0.618 | 0.354 | 0.163 | 0.128 |
| NCI-H2126 | 0.596 | 0.515 | 0.202 | 0.22 | 0.243 | 0.358 | 0.375 | 0.364 | 0.344 | 0.349 | 0.865 | 0.933 | 0.782 | 0.199 | 0.227 | 0.689 | 0.749 | 0.746 | 0.257 | 0.258 |
| NCI-H2170 | 0.623 | 0.663 | 0.275 | 0.123 | 0.111 | 0.397 | 0.385 | 0.324 | 0.192 | 0.115 | 0.837 | 0.827 | 0.336 | 0.169 | 0.143 | 0.256 | 0.27 | 0.262 | 0.152 | 0.139 |
| NCI-H2228 | 0.46 | 0.119 | 0.0679 | 0.089 | 0.0837 | 0.672 | 0.483 | 0.131 | 0.101 | 0.107 | 0.691 | 0.588 | 0.168 | 0.167 | 0.12 | 0.333 | 0.158 | 0.11 | 0.148 | 0.12 |
| NCI-H2342 | 0.294 | 0.394 | 0.306 | 0.293 | 0.3 | 0.458 | 0.542 | 0.504 | 0.495 | 0.525 | 0.651 | 0.86 | 0.715 | 0.668 | 0.409 | 0.803 | 0.854 | 0.782 | 0.589 | 0.39 |
| NCI-H2347 | 0.308 | 0.248 | 0.216 | 0.176 | 0.118 | 0.45 | 0.446 | 0.397 | 0.317 | 0.322 | 0.569 | 0.557 | 0.524 | 0.329 | 0.379 | 0.426 | 0.463 | 0.517 | 0.376 | 0.331 |
